Here are results for one compound from publication PMC3515450, “Mechanistic and Structural Understanding of Uncompetitive Inhibitors of Caspase-6” (PLoS ONE, 2012).

For one assay, the target named is T1, caspase-6 (Homo sapiens, UniProt P55212).
T1 construct: Residues 24-179 and 194-293 from caspase-6 cDNA (Origene) were cloned into pET-24b and pET-23b vectors; 6x histidine tag (C); made in house; host or cells: E. coli BL21 (DE3) pLysS
T1 sequence (P55212 24-179): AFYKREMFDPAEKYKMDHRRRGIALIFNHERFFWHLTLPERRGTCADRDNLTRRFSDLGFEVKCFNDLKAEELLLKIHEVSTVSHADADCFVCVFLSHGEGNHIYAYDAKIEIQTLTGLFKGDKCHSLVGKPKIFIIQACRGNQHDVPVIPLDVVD
T1 sequence (P55212 194-293): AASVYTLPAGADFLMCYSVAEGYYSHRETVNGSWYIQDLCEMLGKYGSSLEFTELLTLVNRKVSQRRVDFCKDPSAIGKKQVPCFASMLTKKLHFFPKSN
Briefly: Cleavage of Lamin A by purified human caspase-6 (western blot). Format: biochemical. The conditions noted are these: 100 µM concentration. How it is done: The assay to monitor cleavage of Lamin A by purified human caspase-6 is described in Experimental Procedures S1.
Cleavage of Lamin A by purified human Caspase-6: Recombinant caspase-6 was prepared at 6.6 nM final concentration in assay buffer (40 mM HEPES [pH 7.2], 100 mM NaCl, 1 mM EDTA, 2 mM DTT, 0.1% CHAPS, 3% DMSO), and pre-incubated at 37 °C with increasing concentrations (as indicated) of the compound to be assayed. After 30 minutes, GST-tagged Lamin A substrate (Abnova, Cat# H00004000-P01) was added to the reaction mix at a final concentration of 0.33 µM and the incubation was continued for 2 h at 37 °C. Samples were boiled for 5 min to terminate the proteolytic cleavage reaction before they were resolved by SDS-PAGE (10-20% Tris-glycine gel) and transferred to nitrocellulose. The blot was probed with mouse anti-Lamin A antibody (Abnova # H00004000-B01P) and detected with IRDye800 anti-mouse antibody (LI-COR #926-32210). […] Imaging was done on the LI-COR Odyssey® Infrared Imaging System using the 800 nm channel.
For orientation: In western blotting, separated proteins are transferred to a membrane and probed.

Assay [1] concerns the target T2, covalent VEID/caspase-6 complex (Homo sapiens, UniProt P55212).
T2 construct: Residues 24-179 and 194-293 from caspase-6 cDNA (Origene) were cloned into pET-24b and pET-23b vectors; 6x histidine tag; made in house; host or cells: E. coli (as above), BirA co-expressed
T2 sequence (P55212 24-179): T1 sequence (P55212 24-179)
T2 sequence (P55212 194-293): T1 sequence (P55212 194-293)
Briefly: SPR binding to VEID-FMK-blocked caspase-6. The conditions noted are these: covalent VEID/caspase-6 (acyl enzyme) complex, 1:1 binding. As to the method: For SPR experiments, caspase-6 was cloned to include a C-terminal avi-tag (Avidity) and expressed and purified as above, except that biotin ligase (BirA) was co-expressed during fermentation. […] Avi-tagged zymogen C163A-caspase-6 was processed to mature C163A-caspase-6 by the addition of active caspase-3 and caspase-6. Chip preparation for neutravidin-based capture was performed as previously described using either a Biacore T100 or Biacore 3000 instrument (GE Healthcare). Running buffer was 50 mM HEPES pH 7.2, 100 mM MgSO4, 30 mM NaCl, 1 mM TCEP, 0.01% Triton X-100, 1% PEG-3350, 2.5% DMSO, and the instrument was set for 20 degrees C. After capture one flow cell of apo-caspase-6 was exposed to a continuous flow of 20 µM VEID-FMK. A rise in signal could be detected for the binding/reacting of the VEID-FMK and exposure was continued until no additional rise in response was observed (∼45 minutes) indicating full saturation of all binding sites. There was no observed decrease in signal upon washing, indicating the reaction was irreversible. […] Fluorescent substrates were too limiting in solubility and quantity to be added to the running buffer, so substrates were mixed at a concentration equal to their Kmapp with 3 and injected together over the indicated surfaces. […]
Background: SPR reads the build-up and loss of mass on a sensor chip optically.

pKd: −log10 of the molar value.

What is called pKd is −log10 of the Kd, conventionally taken in molar units. Higher therefore signals a small Kd. On to `COc1ccc(-c2cc(C(=O)N[C@@H](CO)Cc3cccc(C#N)c3)co2)cc1OC` [Compound 3], for which, on caspase-6, the “inhibition of caspase-6 cleavage of recombinant Lamin A” value was “did not inhibit”. Further, in assay [1], the negative logarithm of the Kd (pKd) was 5.89.
